Here are results for 19 molecules from patent US11053250B2, “Pyrrolo[1,2-b]pyridazine derivatives” (Gilead Sciences, Inc., priority 2018, dated 2021).

In one test the test system is TNFα. The test is described as follows: IRAK4 Monocyte TNFα Cell Based Assay. To be noted: cryopreserved human monocytes, LPS 50 pg/ml stimulation, TNFα by TR-FRET. As to the method: The cell suspension was then plated at a density of 5,000 cells/well onto black 384 well Greiner clear bottom plates. Plates were pre-spotted with test compounds and serially diluted in DMSO where 40 nL/well were delivered using the Echo 550 acoustic liquid dispenser (Labcyte®) for a final DMSO concentration of 0.1%. Plated cells were treated with compound for 1 hour at 37° C. Cells were then stimulated with 50 pg/ml of LPS (Sigma) excluding outside columns of plate used for unstimulated cell control wells. Cells were incubated for an additional 4 hours at 37° C. Cells were then spun out of the media and 5 μl of sample were taken and analyzed for total TNFα content using the TR-FRET Human TNFα detection system (CisBio). This system utilizes two labeled antibodies (cryptate and XL665) that bind to two different epitopes of the TNFα molecule and produce FRET signal proportional to the concentration of TNFα in the sample. Detection antibodies are mixed 50:50 and 5 μL were dispensed into each well. Plates were covered with clear seals and incubated at room temp overnight. The following morning plates were read using an Envision 2103 Multilabeled reader (PerkinElmer) with excitation/emission/FRET emission at 340 nm/615 nm/665 nm, respectively. Fluorescence intensities at 615 nm and 665 nm emission wavelengths were expressed as a ratio (665 nm/615 nm). Percent of control was calculated as follows: % Control=100×(RatioSample−Ratio0% stimulation)/(Ratio100% Stimulation−Ratio0% stimulation) where unstimulated cells (0% stimulation) were the negative control and stimulated cells (100% stimulation) were used as the positive control.
Background: TR-FRET usually uses a lanthanide donor and a delayed reading to cut background.

The next test has as its target IRAK4 enzyme (Homo sapiens (Human), UniProt Q9NWZ3). The test is described as follows: IRAK4 Biochemical Assay (TR-FRET/HTRF). To be noted: 0.75 nM IRAK4, 500 μM ATP, STK1 peptide. As to the method:
IRAK4 enzyme (Carna Biosciences, Chuo-ku, Kobe, Japan) activity was measured by detecting phosphorylated peptide substrate formation using an antibody against the phosphorylated peptide substrate. This is a time-resolved fluorescence resonance energy transfer (TR-FRET) immunoassay, based on the STK1 KinEASE Assay (Cisbio, Bedford, Mass.). The assay was designed as a simple two-step, endpoint assay (a 5 μl enzyme reaction followed by 5 μl stop and detect Solution) performed in ProxiPlate-384 Plus plates (Perkin Elmer, Waltham, Mass.). Staurosporine, a non-selective kinase inhibitor was used as a positive control. Compounds diluted in DMSO were spotted into 384 well plates using a Labcyte® Echo 550 Liquid Handling System prior to addition of IRAK4 enzyme and peptide substrate. Reaction solutions were delivered using a Multi-Flo (Bio-Tek Instruments). The enzyme and peptide solution was incubated with compound for 15 minutes at room temp before the reaction was initiated by the addition of ATP. The standard 5 μl reaction mixture contained 500 μM ATP, 2 μM peptide (STK1 Peptide), 0.75 nM of IRAK4 in reaction buffer (50 mM HEPES, pH 7.0, 0.02% NaN3, 0.01% BSA, 0.1 mM Orthovanadate, 5 mM MgCl2, 0.025% NP-40, 1 mM DTT). After 120 min of incubation at room temperature, 5 μl of Stop and Detect Solution (1:100 Cryptate labeled anti-phosphorylated peptide antibody solution and 125 nM Tracer in a 50 mM HEPES pH 7.0 detection buffer containing sufficient EDTA) was added. The plate was then further incubated for 60 minutes at room temperature and read on Envision 2103 Multilabeled reader (PerkinElmer) with excitation/emission/FRET emission at 340 nm/615 nm/665 nm, respectively. Fluorescence intensities at 615 nm and 665 nm emission wavelengths were expressed as a ratio (665 nm/615 nm). Percentage of inhibition was calculated as below: % Inhibition=100×(RatioSample−Ratio0% Inhibition)/(Ratio100% Inhibition−Ratio0% Inhibition)
The 0% inhibition value comes from control wells lacking inhibitor. The 100% inhibition value comes from control wells containing a saturating amount of known inhibitor staurosporine.

Molecules are shown by their SMILES. pEC50, pIC50: −log10 of the molar value.

Sequence of IRAK4 enzyme (Q9NWZ3 whole entry): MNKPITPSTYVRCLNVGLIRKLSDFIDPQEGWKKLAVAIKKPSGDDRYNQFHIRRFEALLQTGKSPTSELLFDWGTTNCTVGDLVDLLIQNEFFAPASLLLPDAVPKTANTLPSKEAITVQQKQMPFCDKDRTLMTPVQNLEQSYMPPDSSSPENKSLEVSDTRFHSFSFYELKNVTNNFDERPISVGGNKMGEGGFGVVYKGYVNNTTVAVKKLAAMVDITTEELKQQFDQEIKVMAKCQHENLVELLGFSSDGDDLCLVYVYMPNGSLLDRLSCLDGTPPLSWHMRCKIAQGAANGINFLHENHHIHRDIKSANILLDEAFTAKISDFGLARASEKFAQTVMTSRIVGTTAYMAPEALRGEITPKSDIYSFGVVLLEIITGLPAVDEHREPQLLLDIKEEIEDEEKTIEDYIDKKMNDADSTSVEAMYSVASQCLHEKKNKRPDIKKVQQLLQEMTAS

As to `COC(=O)NC[C@H]1C[C@H](Nc2cc(-c3ccc4cc(C#N)cnn34)ncc2-c2cn(C)nn2)C1` [Compound 33, methyl (((1r,3r)-3-((2-(3-cyanopyrrolo[1,2-b]pyridazin-7-yl)-5-(1-methyl-1H-1,2,3-triazol-4-yl)pyridin-4-yl)amino)cyclobutyl)methyl)carbamate], the pEC50 (as a rule, the negative decadic logarithm of the EC50, by convention in mol/L) in the test with TNFα is 7.36. The pIC50 (as a rule, the IC50 on a negative log10 scale, so that one unit is a factor of ten) against IRAK4 enzyme is over 9.00.
In the test with TNFα (Monocyte), `CC(C)(O)[C@H](F)Cn1cc(-c2cnc(-c3ccc4cc(C#N)cnn34)cc2NC23CCC(N4CCOCC4)(CC2)CC3)nn1` [Compound 34, (R)-7-(5-(1-(2-fluoro-3-hydroxy-3-methylbutyl)-1H-1,2,3-triazol-4-yl)-4-((4-morpholinobicyclo[2.2.2]octan-1-yl)amino)pyridin-2-yl)pyrrolo[1,2-b]pyridazine-3-carbonitrile] gave a pEC50 of 8.22. For the same molecule, the pIC50 against IRAK4 enzyme is over 9.00.
The molecule `CC(C)(O)[C@H](F)Cn1cc(-c2cnc(-c3ccc4cc(C#N)cnn34)cc2NC23CCC(N4CCOC4=O)(CC2)CC3)nn1` [Compound 35, (R)-7-(5-(1-(2-fluoro-3-hydroxy-3-methylbutyl)-1H-1,2,3-triazol-4-yl)-4-((4-(2-oxooxazolidin-3-yl)bicyclo[2.2.2]octan-1-yl)amino)pyridin-2-yl)pyrrolo[1,2-b]pyridazine-3-carbonitrile] showed a negative logarithm of the EC50 (pEC50) with TNFα (Monocyte) of 8.52. For the same molecule, on IRAK4 enzyme, the pIC50 was over 9.00.
In the case of `CNc1cc(-c2ccc3cc(C#N)cnn23)ncc1-c1cn(C)nn1` [Compound 36, 7-(5-(1-methyl-1H-1,2,3-triazol-4-yl)-4-(methylamino)pyridin-2-yl)pyrrolo[1,2-b]pyridazine-3-carbonitrile], the pEC50 in the test with TNFα (Monocyte) was 6.49. At IRAK4 enzyme, the negative logarithm of the IC50 (pIC50) was 7.85.
The molecule `CNc1cc(-c2ccc3cc(C#N)cnn23)ncc1-c1cn(C[C@@H](F)C(C)(C)O)nn1` [Compound 37, (R)-7-(5-(1-(2-fluoro-3-hydroxy-3-methylbutyl)-1H-1,2,3-triazol-4-yl)-4-(methylamino)pyridin-2-yl)pyrrolo[1,2-b]pyridazine-3-carbonitrile] showed a pEC50 in the test on TNFα (Monocyte) of 7.55. Besides, the pIC50 on IRAK4 enzyme is over 9.00.
For the molecule `CC(C)(O)[C@H](F)Cn1cc(-c2cnc(-c3ccc4cc(C#N)cnn34)cc2N[C@H]2CC[C@H](c3nncs3)CC2)nn1` [Compound 38, 7-(4-(((1r,4R)-4-(1,3,4-thiadiazol-2-yl)cyclohexyl)amino)-5-(1-((R)-2-fluoro-3-hydroxy-3-methylbutyl)-1H-1,2,3-triazol-4-yl)pyridin-2-yl)pyrrolo[1,2-b]pyridazine-3-carbonitrile], the pEC50 in the test on TNFα is 8.22. At IRAK4 enzyme, this molecule gave a pIC50 of over 9.00.
For `COC(=O)NC[C@H]1C[C@H](Nc2cc(-c3ccc4cc(C#N)cnn34)ncc2-c2cn(C[C@@H](F)C(C)(C)O)nn2)C1` [Compound 39, methyl (((1R,3r)-3-((2-(3-cyanopyrrolo[1,2-b]pyridazin-7-yl)-5-(1-((R)-2-fluoro-3-hydroxy-3-methylbutyl)-1H-1,2,3-triazol-4-yl)pyridin-4-yl)amino)cyclobutyl)methyl)carbamate], in that order: 8.22 and over 9.00.
In the test on TNFα (Monocyte), `COC(=O)N1CCC(n2cc(-c3cnc(-c4ccc5cc(C#N)cnn45)cc3NC(C)C)nn2)CC1` [Compound 40, methyl 4-(4-(6-(3-cyanopyrrolo[1,2-b]pyridazin-7-yl)-4-(isopropylamino)pyridin-3-yl)-1H-1,2,3-triazol-1-yl)piperidine-1-carboxylate] had a pEC50 of 7.08. The negative-log IC50 (pIC50) at IRAK4 enzyme was 9.00.
The molecule `CC(C)Nc1cc(-c2ccc3cc(C#N)cnn23)ncc1-c1cn(C2CCN(S(C)(=O)=O)CC2)nn1` [Compound 41, 7-(4-(isopropylamino)-5-(1-(1-(methylsulfonyl)piperidin-4-yl)-1H-1,2,3-triazol-4-yl)pyridin-2-yl)pyrrolo[1,2-b]pyridazine-3-carbonitrile] had a pEC50 with TNFα (Monocyte) of 7.15. This molecule also showed a pIC50 against IRAK4 enzyme of 9.00.
`CC(=O)N1CCC(n2cc(-c3cnc(-c4ccc5cc(C#N)cnn45)cc3NC(C)C)nn2)CC1` [Compound 42, 7-(5-(1-(1-acetylpiperidin-4-yl)-1H-1,2,3-triazol-4-yl)-4-(isopropylamino)pyridin-2-yl)pyrrolo[1,2-b]pyridazine-3-carbonitrile] gave a pEC50 with TNFα (Monocyte) of 7.48. Besides, the negative logarithm of the IC50 (pIC50) on IRAK4 enzyme is 9.00.
In the case of `CC(C)Nc1cc(-c2ccc3cc(C#N)cnn23)ncc1-c1cn(C2CCNCC2)nn1` [Compound 43, 7-(4-(isopropylamino)-5-(1-(piperidin-4-yl)-1H-1,2,3-triazol-4-yl)pyridin-2-yl)pyrrolo[1,2-b]pyridazine-3-carbonitrile], the pEC50 with TNFα (Monocyte) is 7.30. At IRAK4 enzyme, this molecule gave a pIC50 of over 9.00.
Regarding `CC(C)Nc1cc(-c2ccc3cc(C#N)cnn23)ncc1-c1cn(CC(=O)N(C)C)nn1` [Compound 44, 2-(4-(6-(3-cyanopyrrolo[1,2-b]pyridazin-7-yl)-4-(isopropylamino)pyridin-3-yl)-1H-1,2,3-triazol-1-yl)-N,N-dimethylacetamide], the pEC50 with TNFα (Monocyte) was 7.21. The molecule further showed a pIC50 against IRAK4 enzyme of 9.00.
In turn, `CNC(=O)Cn1cc(-c2cnc(-c3ccc4cc(C#N)cnn34)cc2NC(C)C)nn1` [Compound 45, 2-(4-(6-(3-cyanopyrrolo[1,2-b]pyridazin-7-yl)-4-(isopropylamino)pyridin-3-yl)-1H-1,2,3-triazol-1-yl)-N-methylacetamide] gave a pEC50 in the test with TNFα (Monocyte) of 7.07. At IRAK4 enzyme, the negative logarithm of the IC50 (pIC50) is 9.00.
`CC(C)Nc1cc(-c2ccc3cc(C#N)cnn23)ncc1-c1cn(C2CCN(C(=O)OC(C)(C)C)CC2)nn1` [Compound 46, tert-butyl 4-(4-(6-(3-cyanopyrrolo[1,2-b]pyridazin-7-yl)-4-(isopropylamino)pyridin-3-yl)-1H-1,2,3-triazol-1-yl)piperidine-1-carboxylate] showed a pEC50 in the test with TNFα (Monocyte) of 6.27. The pIC50 against IRAK4 enzyme is 8.15.
With `CC(C)Nc1cc(-c2ccc3cc(C#N)cnn23)ncc1-c1cn(CCN2CCOCC2)nn1` [Compound 47, 7-(4-(isopropylamino)-5-(1-(2-morpholinoethyl)-1H-1,2,3-triazol-4-yl)pyridin-2-yl)pyrrolo[1,2-b]pyridazine-3-carbonitrile], in the test with TNFα (Monocyte), the pEC50 is 7.48. In addition, the pIC50 on IRAK4 enzyme is over 9.00.
For `COCCn1cc(-c2cnc(-c3ccc4cc(C#N)cnn34)cc2NC(C)C)nn1` [Compound 48, 7-(4-(isopropylamino)-5-(1-(2-methoxyethyl)-1H-1,2,3-triazol-4-yl)pyridin-2-yl)pyrrolo[1,2-b]pyridazine-3-carbonitrile], in the test on TNFα (Monocyte), the pEC50 is 6.90. The pIC50 on IRAK4 enzyme is 8.70.
`CC(C)Nc1cc(-c2ccc3cc(C#N)cnn23)ncc1-c1cn(C[C@@H](F)C(C)(C)O)nn1` [Compound 49, (R)-7-(5-(1-(2-fluoro-3-hydroxy-3-methylbutyl)-1H-1,2,3-triazol-4-yl)-4-(isopropylamino)pyridin-2-yl)pyrrolo[1,2-b]pyridazine-3-carbonitrile] showed a pEC50 with TNFα (Monocyte) of 7.52. This molecule showed a negative-log IC50 (pIC50) against IRAK4 enzyme of over 9.00.
The like results for `CC(C)Nc1cc(-c2ccc3cc(C#N)cnn23)ncc1-c1cn(CC(C)(C)O)nn1` [Compound 50, 7-(5-(1-(2-hydroxy-2-methylpropyl)-1H-1,2,3-triazol-4-yl)-4-(isopropylamino)pyridin-2-yl)pyrrolo[1,2-b]pyridazine-3-carbonitrile] were, in that order, 6.62 and 8.40.
Consider `CC(C)Nc1cc(-c2ccc3cc(C#N)cnn23)ncc1-c1cn(C(C)C)nn1` [Compound 51, 7-(5-(1-isopropyl-1H-1,2,3-triazol-4-yl)-4-(isopropylamino)pyridin-2-yl)pyrrolo[1,2-b]pyridazine-3-carbonitrile], for which, in the test with TNFα (Monocyte), the pEC50 was 6.88. Moreover, the pIC50 against IRAK4 enzyme was over 9.00.
